Columns and labels:
[1] = Predicted hepatic clearance from hepatic microsomes (rat); type: in vitro ADME
Procedure: Intrinsic clearance: Human or rat hepatic microsomes (0.5 mg/mL) and 1 µM test compound were incubated in 100 mM potassium phosphate pH 7.4 buffer with 3 mM MgCl2 at 37°C with constant shaking.
After a 5 min preincubation, the reaction was initiated by addition of NADPH (1 mM). At selected time intervals (0, 3, 7, 15, 25, and 45 min), aliquots were taken and subsequently placed into a 96-well plate containing cold acetonitrile with internal standard (50 ng/mL carbamazepine). Plates were then centrifuged at 3000 rcf (4° C) for 10 min, and the supernatant was transferred to a separate 96-well plate and diluted 1:1 with water for LC/MS/MS analysis. The in vitro half-life (T 1/2, min, Eq. 1), intrinsic clearance (CLint, mL/min/kg, Eq. 2) and subsequent predicted hepatic clearance (CLhep, mL/min/kg, Eq. 3) was determined […]
employing the following equations: […]
where k represents the slope from linear regression analysis of the natural log percent remaining of test compound as a function of incubation time
0.693 mL incubation 45 mg microsomes 20a gram liver
(2) CLint = in vitroT x mg microsomes x gram liver x kg body wt […]
ascale-up factors: of 20 (human) or 45 (rat) […]
where Qh (hepatic blood flow, mL/min/kg) is 21 (human) or 70 (rat).
LC/MS/MS Bioanalysis of Samples from Plasma Protein Binding and Intrinsic Clearance Assays. Samples were analyzed on a Thermo Electron TSQ Quantum Ultra triple quad mass spectrometer (San Jose, CA) via electrospray ionization (ESI) with two Themo Electron Accella pumps (San Jose, CA), and a Leap Technologies CTC PAL autosampler (Carrboro, NC). Analytes were separated by gradient elution on a dual column system with two Thermo Hypersil Gold (2.1 x 30 mm, 1.9 µm) columns (San Jose, CA) thermostated at 40°C. HPLC mobile phase A was 0.1% formic acid in water and mobile phase B was 0.1% formic acid in acetonitrile. The gradient […]
95% B for 0.2 min; returned to 10% B in 0.1 min. The total run time was 1.3 min and the HPLC flow rate was 0.8 mL/min. While pump 1 ran the gradient method, pump 2 equilibrated the alternate column isocratically at 10% B. Compound optimization, data collection and […]

[2] = Rat CNS penetration (brain:plasma); type: in vivo; settings: male, Sprague-Dawley, intraperitoneal, 10 mg/kg; for Kp at 0.25 h: brain and plasma, rat brain:plasma; for Kp uu at 0.25 h: rat, brain/plasma
Procedure: In vivo DMPK experimental
Compounds were formulated as 10% tween 80 micro suspensions in sterile water at the concentration of 1 mg/ml and administered intraperitoneally to male Sprague- Dawley rats weighing 225 to 250 g (Harlan, Inc., Indianapolis, IN) at the dose of 10 mg/kg. The rat blood and brain were collected at 0.25 hr. Animals were euthanized and decapitated, and the brains were removed, thoroughly washed in cold phosphate buffered saline and immediately frozen on dry ice.
Trunk blood was collected in EDTA Vacutainer tubes, and plasma was separated by centrifugation and stored at -80°C until analysis. Plasma was separated by centrifugation (4000 rcf, 4°C) and stored at […] until analysis. On the day of analysis, frozen whole-rat brains were weighed and diluted with 1:3 (w/w) parts of 70:30 isopropanol:water. The mixture was then subjected to mechanical homogenation employing a Mini-Beadbeater™ and 1.0 mm Zirconia/Silica Beads (BioSpec Products) followed by centrifugation. The sample extraction of plasma (20 μL) or brain homogenate (20 μL) was performed by a method based on protein precipitation using three volumes of ice-cold acetonitrile containing an internal standard (50 ng/mL carbamazepine). The samples were centrifuged (3000 rcf, 5 min) and supernatants transferred and diluted 1:1 (supernatant: water) into a new 96 well plate, which was then sealed in preparation for LC/MS/MS […]
In vivo samples were analyzed via electrospray ionization (ESI) on an AB Sciex API-5500 QTrap (Foster City, CA) instrument that was coupled with Shimadzu LC-20AD pumps (Columbia, MD) and a Leap Technologies CTC PAL auto-sampler (Carrboro, NC). Analytes were separated by gradient elution using a Fortis C18 3.0 x 50 mm, 3 µm column (Fortis Technologies Ltd, Cheshire, UK) thermostated at 40°C. HPLC mobile phase A was 0.1% formic acid in water (pH unadjusted), mobile phase B was 0.1% formic acid in acetonitrile (pH unadjusted). The gradient started at 30% […]
min and returned to 30% B in 0.1 min followed by a re-equilibration (0.9 min). The total run time was 2.5 min and the HPLC flow rate was 0.5 mL/min. The source temperature was set at 500°C and mass spectral analyses were performed using multiple reaction monitoring (MRM), with transitions specific for each compound utilizing a Turbo-Ionspray® source in positive ionization […]
mode (5.0 kV spray voltage). The calibration curves were constructed in blank plasma. All data were analyzed using AB Sciex Analyst software v1.5.1.
All animal study procedures were approved by the Institutional Animal Care and Use Committee and were conducted in accordance with the National Institutes of Health regulations of animal care covered in Principles of Laboratory Animal Care (National Institutes of Health). […]
GraphPad Prism (version 4.03, GraphPad, La Jolla, CA). […]

## Cc1nc(C2CC2)ccc1CNC(=O)c1cc(-n2cccn2)ccc1Cl [compound 8]
[1]
  Predicted CLhep (r): 46.7 mL/min/kg
[2]
  Kp at 0.25 h: 1.8
  Kp uu at 0.25 h: 1.2

## Cn1nc(-c2ccnn2C)cc1CNC(=O)c1cc(-n2cccn2)ccc1Cl [compound 5]
[1]
  Predicted CLhep (r): 21.4 mL/min/kg
[2]
  Kp at 0.25 h: 0.3
  Kp uu at 0.25 h: 0.52

## Cc1nc2ccccc2cc1CNC(=O)c1cc(-n2cccn2)ccc1Cl [compound 6]
[1]
  Predicted CLhep (r): 47.8 mL/min/kg

## Cc1nc2c(F)cccc2cc1CNC(=O)c1cc(-n2cccn2)ccc1Cl [compound 7]
[1]
  Predicted CLhep (r): 46.8 mL/min/kg
[2]
  Kp at 0.25 h: 0.98

## Cn1cc(-c2cc(CNC(=O)c3cc(-c4ccco4)ccc3Cl)n(C)n2)cn1 [compound 4]
[1]
  Predicted CLhep (r): 34.2 mL/min/kg
[2]
  Kp at 0.25 h: 0.89
  Kp uu at 0.25 h: 0.98
